Laboratory results reported in US6790540B2, “Organic electroluminescent element material and organic electroluminescent element” (Nippon Steel Chemical Co., Ltd., priority 2000, dated 2004).

Columns and labels:
[1] = Solubility (wt %) of compounds in chloroform and toluene; type: physicochemical; design: key: ◯: ∘, completely soluble; Δ, a slight amount remaining insoluble; X, a considerable amount remaining insoluble; conditions: for Solubility, Chloroform 0.1% soln. / Solubility, Toluene 0.1% soln.: 0.1% soln. (wt %); for Solubility, Chloroform 1% soln. / Solubility, Toluene 1% soln.: 1% soln. (wt %); for Solubility, Chloroform 5% soln. / Solubility, Toluene 5% soln.: 5% soln. (wt %); for Solubility, Chloroform 10% soln. / Solubility, Toluene 10% soln.: 10% soln. (wt %)
Description: The symbols in the table stand for the following: ∘, completely soluble; Δ, a slight amount remaining insoluble; X, a considerable amount remaining insoluble.

[2] = Maximum PL wavelength in chloroform; type: physicochemical; conditions: in chloroform (Compound B: 0.1 mM, excitation 350 nm)
Procedure: Next, 5.0 g (0.016 mole) of Compound J, 2.12 g (0.016 mole) of zinc chloride and 4.74 g (0.047 mole) of triethylamine were suspended in 30 ml of ethanol and allowed to react at room temperature. After 3 hours, the separated yellow powder was filtered, washed with ethanol, and purified by column chromatography to give […] (90.0%) of Compound B as yellow crystals. The maximum PL wavelength of Compound B in chloroform was 509 nm (concentration, 0.1 mM; solvent, CHCl3; excitation, 350 nm).

| Compound | Solubility, Chloroform 0.1% soln. [1] | Solubility, Chloroform 1% soln. [1] | Solubility, Chloroform 5% soln. [1] | Solubility, Chloroform 10% soln. [1] | Solubility, Toluene 0.1% soln. [1] | Solubility, Toluene 1% soln. [1] | Solubility, Toluene 5% soln. [1] | Solubility, Toluene 10% soln. [1] | maximum PL wavelength [2] [nm] |
| --- | --- | --- | --- | --- | --- | --- | --- | --- | --- |
| c1cnc2c([O][Al]([O]c3cccc4cccnc34)[O]c3cccc4cccnc34)cccc2c1 [Alq3, aluminum-8-hydroxyquinoline complex] | Δ | X | X | X | X | X | X | X | – |
| CCCCCCCCS(=O)(=O)[N-]c1ccccc1-c1nc2ccccc2o1.CCCCCCCCS(=O)(=O)[N-]c1ccccc1-c1nc2ccccc2o1.[Zn+2] [Compound 6a, zinc bis-2-(2-(n-octylsulfonamido)phenyl)benzoxazolate] | ◯ | ◯ | ◯ | ◯ | ◯ | ◯ | Δ | X | – |
| CCCCCCCCS(=O)(=O)[N-]c1cccc2cccnc12.CCCCCCCCS(=O)(=O)[N-]c1cccc2cccnc12.[Zn+2] [Compound B, zinc bis-8-(n-octylsulfonamido)quinolinate] | – | – | – | – | – | – | – | – | 509 |

Further lines, results first:

| Solubility, Chloroform 0.1% soln. [1] | Solubility, Chloroform 1% soln. [1] | Solubility, Chloroform 5% soln. [1] | Solubility, Chloroform 10% soln. [1] | Solubility, Toluene 0.1% soln. [1] | Solubility, Toluene 1% soln. [1] | Solubility, Toluene 5% soln. [1] | Solubility, Toluene 10% soln. [1] | maximum PL wavelength [2] [nm] | Compound |
| --- | --- | --- | --- | --- | --- | --- | --- | --- | --- |
| Δ | X | X | X | X | X | X | X | 505 | CS(=O)(=O)[N-]c1cccc2cccnc12.CS(=O)(=O)[N-]c1cccc2cccnc12.[Zn+2] [Compound M, Zinc bis-8-(methylsulfonamido)quinolinate] |
| ◯ | Δ | X | X | X | X | X | X | 510 | CCCCS(=O)(=O)[N-]c1cccc2cccnc12.CCCCS(=O)(=O)[N-]c1cccc2cccnc12.[Zn+2] [Compound N, Zinc bis-8-(n-butylsulfonamido)quinolinate] |
